The values that follow come from paper PMC5684613 (BioMed Research International, 2017).

Values after ≈ are worked out from the molar mass of the structure shown. Read-outs that look alike come from different tables or passages of the source.

Data set [1] in a line: Oral pharmacokinetic study, fasted and fed state. The following applies: for K el / AUC(0-t) / AUC / Cmax: oral; for K el / AUC(0-t) / AUC: 70 mg/kg DRV; for AUC(0-t): AUC0-t; for AUC: AUC0-α; for Cmax: C max, 70 mg/kg DRV (8 mg/kg Ritonavir).
The nature of data set [2]: In vitro permeation study by everted gut sac method. It counts as in vitro ADME, albino Wistar rats. The settings on record: male, albino Wistar, rat, pH 7.4; mucosal to serosal, n = 3; read-out: Apparent permeability coefficient mean ± SD. The method, then:
(§1) The tissue was continuously aerated (oxygenated) with the aid of an electrical aerator. Intestinal segments of 4 cm were cut and ligated with nylon thread at one end and carefully everted on the glass rod. The everted gut sacs were filled with 500 μl of Tyrode solution and ligated at the other end and then placed inside the test tube containing 15 mL of the test solution continuously bubbled with atmospheric air at 15–20 bubbles per min separately. Test tubes were maintained at temperature 37 ± 0.5°C on water bath. The test solution outside the sac was termed as mucosal fluid, and the solution inside the sac was termed as serosal fluid.

Data set [3] concerns everted gut sac. The data set is described as above. Type of data set: in vitro ADME, albino Wistar rats. The following applies: after 2 h, serosal fluid, 1 mg/ml DRV outside. The method, then: as §1
Data set [4] can be described thus: Dissolution studies in FaSSIF and FeSSIF media. It counts as physicochemical. The following applies: n = 3. The procedure: These two biorelevant media, FaSSIF and FeSSIF, were developed to simulate the condition of the intestine in the fasted and fed states.
Blank FaSSIF was prepared by dissolving 6.186 g NaCl, 4.47 g NaH2PO4, and 0.348 g NaOH in 900 ml of distilled water and the pH was adjusted to 6.5 by using 1 N NaOH or HCl using pH meter. The volume was made up to 1000 ml using distilled water.
Blank FaSSIF medium (500 ml) was taken and 2.240 g SIF powder was added to it and this solution was magnetically stirred until the powder completely dissolved to obtain a clear micellar solution. The volume was made up to 1000 ml using the buffer. The solution was allowed to stand for 2 h; it becomes slightly opalescent and thereafter used. A volume of 500 ml is recommended for dissolution for simulating fasted state condition
Blank FeSSIF was prepared by dissolving 8.65 g glacial acetic acid, 11.874 g NaCl, and 4.04 g NaOH in 900 ml of distilled water and the pH was adjusted to 5.0 by using 1 N NaOH or HCl using pH meter. The volume was made up to 1000 ml using distilled water.
Blank FeSSIF medium (500 ml) was taken and 11.20 g SIF powder was added to it and this solution was magnetically stirred until the powder completely dissolved to obtain a clear micellar solution. The volume was made up to 1000 ml using the buffer and thereafter used. For simulating fed state condition 1 L dissolution fluid is recommended.

Data set [5] is described as follows: In vitro dissolution study, USP II paddle, acetate buffer pH 4.5. The following applies: acetate buffer pH 4.5, after 90 min, n = 3. It counts as physicochemical. The procedure:
Dissolution studies were performed using a USP II Paddle dissolution apparatus (Distek, USA). The prepared SDs were filled in 00 size capsules and placed in Japanese sinkers. The sinkers were then placed in dissolution vessels containing 900 ml of acetate buffer pH 4.5, at 75 rpm and temperature 37 ± 0.5°C. Samples (5 ml) were collected periodically at 15, 30, 45, 60, and 90 min, filtered through a 0.45 μm PVDF filter and replaced with a fresh dissolution medium (5 ml). The concentrations were analyzed at 264 nm by UV spectrophotometer.

Data set [6] in a line: Phase solubility study of DRV in aqueous carrier solutions.
For data set [7] the following is noted: cited from earlier work.
Details of data set [8]: method as in Kim et al. [32]. The settings on record: simultaneous administration of curcumin, rats; ref Kim et al. [32]; cited from earlier work.
Details of data set [9]: method as in Varma and Panchagnula [30]. The settings on record: ref Varma and Panchagnula [30], cited from earlier work.
Where [10] appears, read: male, albino Wistar, rat, in vivo, po, 70 mg/kg, Group A (fasted).
Where [11] appears, read: male, albino Wistar, rat, in vivo, po, 70 mg/kg, Group B (fed).

Regarding `CC(C)CN(C[C@@H](O)[C@H](Cc1ccccc1)NC(=O)O[C@H]1CO[C@H]2OCC[C@H]21)S(=O)(=O)c1ccc(N)cc1` [DRV, Darunavir], the figures for the K el in [1] (Group A (fasted)) and in [1] (Group B (fed)) were 0.211 ± 0.002 and 0.228 ± 0.003, respectively. Moreover, the Tmax in [1] (male, albino Wistar, rat, in vivo, po, 70 mg/kg) came to 1 h. Moreover, the figures for the AUC(0-t) in data set [1] (setting [10]) and in data set [1] (setting [11]) were 116 ng·h/mL and 258 ng·h/mL, respectively. Also, the results for the AUC in [1] (setting [10]) and in data set [1] (setting [11]) were 117 ng·h/mL and 259 ng·h/mL, respectively. For the same compound, the Cmax in data set [1] (setting [10]) is 2860 ± 366 ng/mL; in [1] (setting [11]), 5870 ± 565 ng/mL. Besides, in [2], the Papp at 120 min, 1 mg/ml was determined as 0.828 ± 0.12 ×10⁻⁶ cm/s. In addition, the “concentration of the drug inside the sac” value in data set [3] was 451480 ± 4020 ng/mL. Besides, the “Cumulative % drug release (±SD) in FaSSIF” value in data set [4] (after 30 min) turned out to be 13.8 ± 0.239%; in [4] (after 60 min) it was 25.7 ± 0.512%; in data set [4] (after 90 min), 31.2 ± 0.425%. Moreover, the “Cumulative % drug release (±SD)” value in data set [5] turned out to be 30.9%. Also, in [6], the concentration in solution (solubility at 72 h) was 150 µg/mL (≈ 274 µM). Further, the solubility in water in data set [7] was 150 µg/mL (≈ 274 µM).
For the compound `CC(C)(C)NC(=O)[C@@H]1C[C@@H]2CCCC[C@@H]2CN1C[C@@H](O)[C@H](Cc1ccccc1)NC(=O)[C@H](CC(N)=O)NC(=O)c1ccc2ccccc2n1` [Saquinavir], the “increase of oral exposure” value in [8] is 2.7 fold.
With `CC(=O)O[C@H]1C(=O)[C@@]2(C)[C@H]([C@H](OC(=O)c3ccccc3)[C@]3(O)C[C@H](OC(=O)[C@H](O)[C@@H](NC(=O)c4ccccc4)c4ccccc4)C(C)=C1C3(C)C)[C@]1(OC(C)=O)CO[C@@H]1C[C@@H]2O` [paclitaxel], the Intrinsic permeability is 22 ×10⁻⁶ cm/s in data set [9] (in the presence of 1 mg/ml TPGS) and 8 ×10⁻⁶ cm/s in [9] (without TPGS).

Usually Tmax stands for the time from dosing to the highest level. For orientation: AUC(0-t) means exposure summed from dosing to a finite time, without extrapolation to infinity. A low value points to less exposure. As a reminder, the AUC is concentration integrated over time. Read a low AUC as low exposure. For orientation: Cmax means the highest concentration seen after dosing. By solubility is commonly meant the concentration that dissolves in the medium under given conditions. High values mean a readily soluble substance, low ones a poorly soluble substance.
